Source: patent US20130315920A1, “Cross Protective Epitopes of Aspergillus Fumigatus and Candida Albicans” (Cell Medica Limited, priority 2010, published 2013)

Experiments:
[1] = tested on: T-cell lines of 7 donors with different MHC class II alleles; assay: Epitope mapping of Crf1 peptides with IFN-γ ELISPOT; format: cell-based, human; details: 7 donors tested, peptide-pulsed autologous DC
Text: As the identification of potential protective fungal antigens is rather intricate due to the extensiveness of fungal genomes, we analyzed 6 different A. fumigatus recombinant proteins based on their previously reported immunogeneic reactivity in mice and humans^7,10. […] By contrast, GPI-anchored extracellular cell wall glucanase Crf1 and secreted protein peptidase induced high IFN-γ in 6 of 7 and 5 of 10 tested donors, respectively. The response was mediated by CD4^+ TH1 cells, as MHC class II blocking antibody nearly abrogated IFN-γ release (data not shown). Due to the broad response and the sequence similarity to the C. albicans orthologue Crh1, we focused in subsequent experiments on the protein Crf1. By epitope mapping of 7 healthy individuals with different MHC class II alleles, we identified 10 potential candidate epitopes (Table 1). Based on the results obtained by epitope mapping, the probability of antigen presentation by certain MHC class II alleles assessed by epitope prediction^11, previously reported immunogeneic reactivity^12 and sequence similarity to the C. albicans homologue Crh1, we then generated CD4^+ TH1 T-cell clones specific for the peptides p1, p22, p27, p41, p48, p59, p69 and p84 (FIG. 1a and Table 1).
A peptide library covering the complete Crf1 sequence consisting of 94 15-mer peptides overlapping by […] (aa) was divided into sub-pools of 10 peptides and 94 single peptides (p1-p94) (PANATecs). 3 11-mer peptides of p40/41 overlapping by 2aa ([…], […], HTYTIDWTKDA) were obtained from JPT Peptide Technologies.
For analysis of recombinant proteins and epitope mapping, T-cell lines were generated by incubation of 1×10^7 PBMC per well in 6-well cell culture plates with 5 μg/ml protein or peptide for 7d in the presence of 5 U/ml IL-2 (Proleukin, Chiron). Antigen specificity was analyzed by IFN-γ ELISA^42 after restimulation with autologous monocytes incubated overnight with 5 μg/ml protein in a responder to stimulator (R:S) ratio of 5:1. Epitope mapping was performed by IFN-γ ELISPOT^39 after stimulation with peptide-pulsed autologous DC at a R:S ratio of 10:1.

[2] = tested on: DC transfected with Crf1 mRNA; assay: Peptide-specific T-cell clones stimulated with Crf1 mRNA-transfected DC (IFN-γ); format: cell-based, human
Procedure: T-cell cloning was performed as described in below. T-cell clones were stimulated either with mature peptide-pulsed (2.5 μg/ml) or Crf1 mRNA-transfected DC, immature DC incubated for 24 h with A. fumigatus cell extract (20 μg/ml) in the presence of cytokine maturation cocktail or immature DC incubated for 24 h with inactivated A. fumigatus or C. albicans fungus (multiplicity of infection 3) in a R:S ratio of 5:1.
For T-cell cloning 6×10^7 PBMC were stimulated overnight with 5 μg/ml peptide and 1 μg/ml CD40 antibody (HB14, Miltenyi Biotec). Cells were labelled with anti-CD154^+ microbeads and isolated by magnetic cell separation according to the manufacturers' instructions (Miltenyi Biotec). Selected cells were cultured with γ-irradiated autologous PBMC (ratio 1:50) and cytokines were supplemented as described above. On d14, T-cell clones were generated by limiting dilution in 96-well plates and expanded using the rapid expansion protocol previously described^50.
A. fumigatus Crf1 cDNA was cloned into the pGEM4Z vector (provided by Kris Thielemans) and in vitro transcribed using mMESSAGE mMACHINE T Ultra Kit (Ambion) according to the manufacturers' instructions. Crf1 was fused to the N-terminal domain of the invariant chain to enhance antigen presentation by MHC class II^51,52. Maturated DC were electroporated with 15 μg mRNA at 300V and 150 μF using the EQUIBIO EasyjecT Plus® apparatus (EQUIBIO) in serum-free medium (OptiMEM, Gibco)^41.

CD4^+ spleen cells = assay: Proliferation assay of purified CD4+ spleen cells ([3H]thymidine); format: cell-based; details: mice untreated or vaccinated with A. fumigatus or C. albicans; 5 μg/mL peptide, 3 days
Procedure: A. fumigatus Crf1 protein mediates cross-protection to C. albicans. Mice were injected intranasally with resting A. fumigatus conidia 14 days before infection, or with purified Crf1 protein and murine CpG oligodeoxynucleotide 1862 14, 7 and 3 days before intragastric infection with C. albicans. Note (a) the reduced inflammatory cell recruitment and acanthosis in mice vaccinated with A. fumigatus conidia or Crf1 protein as opposed to control mice shown in FIG. 5a and c and (b) the increase in protective TH1 and regulatory T-cell transcription factors and cytokine levels. […] The results are expressed as mean cpm±SEM of triplicate cultures. […]
DC (1×10^5) and CD4^+ T-cells (5×10^5) were purified from spleens of mice untreated or vaccinated with A. fumigatus or C. albicans, by magnetic separation of MicroBeads (Miltenyi Biotec) and cocultured in round-bottom, 96-well plates in 200 μl complete medium, with and without anti-CD3ε antibody (clone 145-2C11; BD PharMingen), heat-inactivated Aspergillus or Candida (at a cell:fungi ratio of 2:1), 5 μg/mL of Crf1 p41 peptide. […] Incorporation into cellular DNA was measured by liquid scintillation counting. The results are expressed as mean cpm±SEM of triplicate cultures.

HTYTIDWTKDAVTWS (Peptide found in the Crf1 protein of Aspergillus fumigatus) [p41, Crf1 aa 161-175]
No. of responders [1]: 5
Response of peptide-specific CD4+ T-cell clones to endogenously processed antigen ([2]; all donors): All generated p41-specific CD4^+ T-cell clones were activated readily
Number of T-cell clones reacting to Crf1 mRNA-transfected DC/number of peptide-specific T-cell clones ([2]; donor 1): 11/11
Number of T-cell clones reacting to Crf1 mRNA-transfected DC/number of peptide-specific T-cell clones ([2]; donor 2): 16/16
Number of T-cell clones reacting to Crf1 mRNA-transfected DC/number of peptide-specific T-cell clones ([2]; donor 4): 2/2
Number of T-cell clones reacting to Crf1 mRNA-transfected DC/number of peptide-specific T-cell clones ([2]; donor 7): 4/4
Number of T-cell clones reacting to Crf1 mRNA-transfected DC/number of peptide-specific T-cell clones ([2]; donor 10): 3/3
Antigen-specific proliferation of CD4+ spleen cells (CD4^+ spleen cells): cross-protection could be mediated by T-cells recognizing the same epitope p41
